From patent US20250002492A1, “COMPOSITIONS OF FOLATE ABSORPTION INHIBITORS AND METHODS THEREOF” (THE TEXAS A&M UNIVERSITY SYSTEM, priority 2023, published 2025)

Experiments:
Caco-2 cells = assay: Toxicity in Caco-2 cells; type: cell-based; conditions: tested at 2-400 μM
[1] = molecular target: T1, Folate Uptake Transporter (PCFT) in Caco2 cells (Homo sapiens, UniProt Q96NT5); assay: Folate uptake transporter inhibition in Caco2 cell line ([3H]-folic acid uptake); type: cell-based
T1 construct: These cells express high levels of the PCFT/SLC46A1 receptor; host or cells: Caco-2
T1 sequence (Q96NT5 1-459): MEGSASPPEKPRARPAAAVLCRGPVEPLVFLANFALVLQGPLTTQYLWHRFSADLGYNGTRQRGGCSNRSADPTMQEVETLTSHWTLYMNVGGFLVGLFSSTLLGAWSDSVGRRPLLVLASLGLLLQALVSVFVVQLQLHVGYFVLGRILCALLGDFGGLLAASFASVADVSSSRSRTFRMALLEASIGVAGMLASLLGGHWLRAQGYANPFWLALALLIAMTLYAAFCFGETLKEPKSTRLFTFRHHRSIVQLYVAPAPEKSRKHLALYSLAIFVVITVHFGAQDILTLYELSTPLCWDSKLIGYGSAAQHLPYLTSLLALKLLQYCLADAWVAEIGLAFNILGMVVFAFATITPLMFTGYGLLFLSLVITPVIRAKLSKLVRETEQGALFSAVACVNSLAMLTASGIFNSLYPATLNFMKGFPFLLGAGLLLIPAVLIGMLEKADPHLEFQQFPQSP
Experimental: Cell plates were prepared using Caco-2 cell culture medium consisting of Dulbecco's Modified Eagle's Medium (DMEM) with high glucose and L-glutamine supplemented with: 10% FBS, 1× penicillin-streptomycin mixture and 1×non-essential amino acids (NEAA) and medium was incubated at 37° C., 5% CO2 for 0.5 hour. Plates were prepared for cell seeding. Caco-2 cells from American Type Culture Collection at passage 44 were cultivated in T-75 flasks in a cell culture incubator set at 37° C., 5% CO2, 95% relative humidity. Cells reached 80-90% confluence before detaching and splitting. Cultivated cells in T-75 flasks were rinsed with 5 mL PBS and aspirated off. Then, 3 mL trypsin/EDTA was added, and cells were incubated at 37° C. for approximately 5 minutes or until the cells detached and floated. Trypsin/EDTA was inactivate by adding excess serum containing medium. Cell suspension was removed and transferred to a conical tube and cells were pelleted by centrifugation at 120×g for 5 minutes. Cells were resuspended in seeding medium at a density of 3×10^4 cells/well in 24-well plates. The plate was incubated for 8-10 days. The medium was replaced every other day, beginning no sooner than 48 hours after initial plating.
The transport buffer (HBSS with 10 mM MES, pH 5.5) was prepared by weighing 1.952 g of MES and 0.35 g sodium hydrogen carbonate and adding into 900 mL of pure water followed by sonication to dissolve the content. Following the transfer of 100 mL of 10×HBSS into the solution. The solution was placed on a stirrer, the pH was slowly adjusted with hydrochloric acid to 5.5, and then the solution was filtered to get HBSS solution (with 10 mM MES, pH 5.5).
The [3H]-folic acid (10 nM) substrate solution was prepared using [3H]-folic acid (1 mCi/ml) diluted with pH 5.5 buffer. Next, the [3H]-folic acid (10 nM) substrate solution+test inhibitor (X μM) and the [3H]-folic acid (10 nM) substrate solution+positive control inhibitor (pemetrexed, 50 μM) were prepared. For the solution without inhibitor, DMSO was diluted with corresponding substrate solution to get the working incubation solution.
The pre-incubation solution was prepared by adding the same final concentration of test compound (X μM) and the known inhibitor (pemetrexed, 50 μM) in pH 5.5 buffer. For the solution without inhibitor, DMSO diluted with in pH 5.5 buffer was used as the vehicle control.
When the 8-10 day Caco-2 cultured cells reached confluence and were differentiated, they were ready to be used for transport studies. The Caco-2 plate was removed from the incubator, and the medium was removed from the 24-well Plates. Next, cells were washed 3 times with 300 μL of pre-warmed pH 5.5 buffer. Then, 300 μL of pre-incubation solution was added into each well and the plate was placed at 37° C. for 30 minutes. The assay was performed in duplicate. After 30 minutes pre-incubation, the pre-incubation solution was aspirated, and 300 μL of pre-warmed working incubation solution was added to start the transporter assay. After 6 minutes incubation, cells were washed by quickly adding/aspirating 300 μL of ice-cold pH 5.5 buffer 4 times. The pH 5.5 buffer was removed and 300 μL of pure water was added into each well. Freeze-thaw in liquid nitrogen and 37° C. incubator was repeated for 3 times to lyse cells. After, centrifugation at 3,300 g was performed for 30 seconds. Next, 50 μL of supernatant was transferred to Isoplate-96 Microplate. 200 μL of scintillation fluid was added to the 50 μL sample and radioactivity was measured by liquid scintillation counting in a MicroBeta 2 scintillation counter for 1 min/sample.
A BCA Kit was used to determine the protein content for each well. Bovine serum albumin at 2, 1, 0.5, 0.25, 0.125, 0.0625, 0.0313, 0.0156, 0.00781 and 0.00391 mg/mL was prepared in Phosphate Buffer Saline (PBS, pH 7.4). 10 μL of supernatant was mixed from the previous step with the same volume of PBS. […]

For `CC(=O)N1CCC(C(=O)N2CCN3C(=O)c4cc(-c5ccccc5)ccc4NC(=O)C3C2)CC1` (stereo not drawn) [MPOL_B_1, 2-(1-acetylpiperidine-4-carbonyl)-8-phenyl-1,3,4,12a-tetrahydrobenzo[e]pyrazino[1,2-a][1,4]diazepine-6,12(2H,11H)-dione], the “toxicity” value (Caco-2 cells) was “not toxic”, the inhibition at 50 µM ([1]; Caco-2, pH 5.5, test conc. 50 μM, [3H]-folic acid 10 nM, 30 min pre-incubation, 6 min incubation, read-out: Percentage inhibition (%)) was 42.3% and the “effect on folate transport / uptake” value ([1]; Caco-2 cells, 50 μM, pH 5.5) was “inhibit folate uptake”.
